Experimental data published in patent US10544143B2, “4-azaindole compounds” (BRISTOL-MYERS SQUIBB COMPANY, priority 2017, dated 2020).

What was measured:
human TLR7 = human TLR7 (Homo sapiens (Human), UniProt Q9NYK1); assay: TLR7 inhibition reporter assay (HEK-Blue SEAP); format: cell-based; conditions: HEK-Blue cells overexpressing human TLR7, SEAP reporter, gardiquimod 7.5 μM
human TLR8 = human TLR8 (Homo sapiens (Human), UniProt Q9NR97); assay: TLR8 inhibition reporter assay (HEK-Blue SEAP); conditions: read-out: TLR8 IC50; HEK-Blue cells overexpressing human TLR8, SEAP reporter, R848 15.9 μM;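 note: SEAP driven by IFN-β minimal promoter carrying NF-κB and AP-1 sites, compounds dosed 0.05 nM to 50 µM for 22 h, inhibition scaled between agonist-plus-DMSO and reference-inhibitor wells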
human TLR8, sequence (Q9NR97 27-1041): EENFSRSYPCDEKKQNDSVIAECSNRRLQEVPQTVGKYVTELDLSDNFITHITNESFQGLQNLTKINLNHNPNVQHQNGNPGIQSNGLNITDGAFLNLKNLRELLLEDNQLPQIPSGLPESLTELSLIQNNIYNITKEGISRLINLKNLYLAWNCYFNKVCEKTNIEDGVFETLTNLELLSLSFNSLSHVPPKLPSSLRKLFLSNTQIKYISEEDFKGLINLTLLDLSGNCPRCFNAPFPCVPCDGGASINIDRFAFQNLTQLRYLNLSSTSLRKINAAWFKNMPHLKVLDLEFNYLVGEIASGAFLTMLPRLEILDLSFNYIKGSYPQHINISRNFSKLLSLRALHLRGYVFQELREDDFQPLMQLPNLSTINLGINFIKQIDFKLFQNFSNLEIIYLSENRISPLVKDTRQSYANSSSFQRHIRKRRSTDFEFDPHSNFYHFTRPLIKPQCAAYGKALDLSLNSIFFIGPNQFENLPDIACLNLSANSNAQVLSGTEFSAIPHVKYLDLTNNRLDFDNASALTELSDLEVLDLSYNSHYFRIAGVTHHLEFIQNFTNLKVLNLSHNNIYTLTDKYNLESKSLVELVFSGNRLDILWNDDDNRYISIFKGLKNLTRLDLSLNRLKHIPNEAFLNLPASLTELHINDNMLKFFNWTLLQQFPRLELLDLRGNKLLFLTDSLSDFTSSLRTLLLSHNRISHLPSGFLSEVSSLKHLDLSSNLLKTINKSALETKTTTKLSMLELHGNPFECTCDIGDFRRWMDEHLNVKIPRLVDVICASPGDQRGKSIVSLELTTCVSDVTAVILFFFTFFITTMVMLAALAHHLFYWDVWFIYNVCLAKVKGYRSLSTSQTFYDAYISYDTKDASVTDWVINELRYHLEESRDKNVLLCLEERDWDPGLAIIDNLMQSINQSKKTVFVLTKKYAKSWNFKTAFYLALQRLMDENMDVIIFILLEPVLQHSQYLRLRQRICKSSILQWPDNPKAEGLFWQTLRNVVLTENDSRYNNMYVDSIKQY

human TLR9 = human TLR9 (Homo sapiens (Human), UniProt Q9NR96); assay: TLR9 inhibition reporter assay (HEK-Blue SEAP); conditions: read-out: TLR9 IC50; HEK-Blue cells overexpressing human TLR9, SEAP reporter, ODN2006 5 nM;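 note: SEAP driven by an IFN-β minimal promoter with NF-κB and AP-1 sites, read after 22 h, compounds dosed 0.05 nM–50 µM, inhibition scaled between agonist plus DMSO and reference-inhibitor wells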
human TLR9, sequence (Q9NR96 26-1032): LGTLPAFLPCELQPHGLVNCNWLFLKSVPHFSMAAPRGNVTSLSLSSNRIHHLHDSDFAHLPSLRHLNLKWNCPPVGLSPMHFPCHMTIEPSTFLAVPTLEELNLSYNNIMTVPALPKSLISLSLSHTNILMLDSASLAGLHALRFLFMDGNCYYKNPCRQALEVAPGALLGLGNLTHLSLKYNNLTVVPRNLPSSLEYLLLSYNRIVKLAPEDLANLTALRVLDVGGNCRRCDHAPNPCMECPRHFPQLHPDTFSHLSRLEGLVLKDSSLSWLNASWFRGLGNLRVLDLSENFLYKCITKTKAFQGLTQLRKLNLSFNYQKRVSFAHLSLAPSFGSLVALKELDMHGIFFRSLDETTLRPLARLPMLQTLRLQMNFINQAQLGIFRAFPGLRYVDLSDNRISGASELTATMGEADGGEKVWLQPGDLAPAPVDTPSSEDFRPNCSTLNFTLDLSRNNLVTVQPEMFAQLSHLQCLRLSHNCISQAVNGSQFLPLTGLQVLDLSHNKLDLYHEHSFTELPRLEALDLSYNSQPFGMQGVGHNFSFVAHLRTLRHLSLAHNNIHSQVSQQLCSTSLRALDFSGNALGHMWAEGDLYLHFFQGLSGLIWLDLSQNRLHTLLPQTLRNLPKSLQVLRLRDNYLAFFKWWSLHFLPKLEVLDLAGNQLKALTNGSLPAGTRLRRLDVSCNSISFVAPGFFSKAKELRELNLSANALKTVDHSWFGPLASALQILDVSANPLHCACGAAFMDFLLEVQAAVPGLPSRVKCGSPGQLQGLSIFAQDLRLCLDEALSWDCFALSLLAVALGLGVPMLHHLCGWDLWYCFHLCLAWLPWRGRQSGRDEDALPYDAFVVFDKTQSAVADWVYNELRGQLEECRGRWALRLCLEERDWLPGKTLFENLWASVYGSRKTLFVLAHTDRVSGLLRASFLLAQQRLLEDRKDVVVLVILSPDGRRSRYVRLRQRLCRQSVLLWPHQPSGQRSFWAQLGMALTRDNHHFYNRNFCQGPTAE

human TLR7, sequence (Q9NYK1 27-1049): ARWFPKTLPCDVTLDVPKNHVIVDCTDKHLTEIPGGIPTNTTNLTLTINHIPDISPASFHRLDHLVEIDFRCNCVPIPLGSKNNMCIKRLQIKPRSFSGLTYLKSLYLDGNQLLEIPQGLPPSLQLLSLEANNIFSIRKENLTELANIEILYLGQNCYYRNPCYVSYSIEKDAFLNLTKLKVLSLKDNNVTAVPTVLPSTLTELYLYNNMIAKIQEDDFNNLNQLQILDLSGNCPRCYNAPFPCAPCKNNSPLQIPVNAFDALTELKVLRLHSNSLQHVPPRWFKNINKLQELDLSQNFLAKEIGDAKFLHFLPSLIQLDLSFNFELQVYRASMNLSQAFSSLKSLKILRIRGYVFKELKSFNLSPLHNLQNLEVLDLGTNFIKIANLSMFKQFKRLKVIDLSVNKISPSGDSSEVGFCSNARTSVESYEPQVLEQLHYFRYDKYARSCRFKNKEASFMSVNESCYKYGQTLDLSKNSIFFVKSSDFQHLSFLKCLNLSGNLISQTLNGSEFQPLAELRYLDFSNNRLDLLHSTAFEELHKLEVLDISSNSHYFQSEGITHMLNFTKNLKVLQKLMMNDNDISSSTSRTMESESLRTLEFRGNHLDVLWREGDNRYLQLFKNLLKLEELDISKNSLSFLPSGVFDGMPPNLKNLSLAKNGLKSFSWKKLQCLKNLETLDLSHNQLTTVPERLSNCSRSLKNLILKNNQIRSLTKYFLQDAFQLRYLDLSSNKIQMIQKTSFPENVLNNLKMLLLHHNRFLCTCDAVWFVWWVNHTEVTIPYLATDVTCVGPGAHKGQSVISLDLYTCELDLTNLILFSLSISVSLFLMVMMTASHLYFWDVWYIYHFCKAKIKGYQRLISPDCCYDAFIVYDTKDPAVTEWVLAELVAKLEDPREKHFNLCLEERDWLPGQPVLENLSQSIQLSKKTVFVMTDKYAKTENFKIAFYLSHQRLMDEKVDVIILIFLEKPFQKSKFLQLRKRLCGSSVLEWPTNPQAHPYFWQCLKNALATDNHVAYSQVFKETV

IC50 (human TLR7) [nM] | IC50 (human TLR8) [nM] | IC50 (human TLR9) [nM] | SMILES
319 | 307 | 545 | CC(C)c1c(-c2ccc(=O)n(C)c2)[nH]c2ccc(C3CCNCC3)nc12 [Example 513]
38 | 44 | 7110 | Cc1cc(-c2[nH]c3ccc(C4CCNCC4)nc3c2C(C)C)nn(C)c1=O [Example 514]
7.9 | 21 | 223 | Cc1cc(-c2[nH]c3ccc(C4CCNCC4)nc3c2C(C)C)cn(C)c1=O [Example 515]
0.22 | 1.9 | 155 | Cc1cc(-c2[nH]c3ccc(C4CCNCC4)nc3c2C(C)C)cn2ncnc12 [Example 516]
1.1 | 6 | 150 | Cc1cc(-c2[nH]c3ccc(C4CCNCC4)nc3c2C(C)C)cn2nnnc12 [Example 517]
1.6 | 32 | 721 | Cc1cc(-c2[nH]c3ccc(C4CCNCC4)nc3c2C(C)C)cn2cnnc12 [Example 518]
8.3 | 12 | 362 | Cc1c(-c2[nH]c3ccc(C4CCNCC4)nc3c2C(C)C)cn(C)c(=O)c1C [Example 519]
0.8 | 7 | 285 | COc1cc(-c2[nH]c3ccc(C4CCNCC4)nc3c2C(C)C)cn2ncnc12 [Example 520]
0.62 | 1.3 | 238 | Cc1c(-c2[nH]c3ccc(C4CCNCC4)nc3c2C(C)C)cn2ncnc2c1C [Example 521]
2.6 | 495 | 144 | Cc1cc(-c2[nH]c3cc(C)c(C4CCNCC4)nc3c2C(C)C)cc(C)n1 [Example 522]
1.2 | 147 | 1470 | COc1cc(-c2[nH]c3cc(C)c(C4CCNCC4)nc3c2C(C)C)cn2ncnc12 [Example 523]
0.88 | 6.7 | 407 | COc1cc(-c2[nH]c3cc(F)c(C4CCNCC4)nc3c2C(C)C)cn2ncnc12 [Example 524]
0.18 | 48 | 771 | Cc1cc2[nH]c(-c3cc(C)c4ncnn4c3)c(C(C)C)c2nc1C1CCNCC1 [Example 525]
7.3 | 3 | 1160 | Cc1cc(-c2[nH]c3ccc(C4CCN(C5CCOCC5)CC4)nc3c2C(C)C)cn(C)c1=O [Example 527]
2.9 | 12 | 1830 | Cc1cc(-c2[nH]c3ccc(C4CCN(CC(=O)N(C)C)CC4)nc3c2C(C)C)cn(C)c1=O [Example 529]
7.1 | 8.8 | 4760 | CNC(=O)CN1CCC(c2ccc3[nH]c(-c4cc(C)c(=O)n(C)c4)c(C(C)C)c3n2)CC1 [Example 530]
19 | 21 | 1290 | Cc1cc(-c2[nH]c3ccc(C4CCN(C(=O)CN(C)C)CC4)nc3c2C(C)C)cn(C)c1=O [Example 531]
0.58 | 4.4 | 3590 | CNC(=O)CN1CCC(c2ccc3[nH]c(-c4cc(C)c5ncnn5c4)c(C(C)C)c3n2)CC1 [Example 532]
0.5 | 3.3 | 1460 | Cc1cc(-c2[nH]c3ccc(C4CCN(CC(=O)N(C)C)CC4)nc3c2C(C)C)cn2ncnc12 [Example 533]
1.2 | 8 | 4280 | Cc1cc(-c2[nH]c3ccc(C4CCN(C5COC5)CC4)nc3c2C(C)C)cn2ncnc12 [Example 534]
2 | 8.6 | 5720 | COc1cc(-c2[nH]c3ccc(C4CCN(C5COC5)CC4)nc3c2C(C)C)cn2ncnc12 [Example 535]
0.66 | 4.1 | 2660 | CNC(=O)CN1CCC(c2ccc3[nH]c(-c4cc(OC)c5ncnn5c4)c(C(C)C)c3n2)CC1 [Example 536]
2.1 | 7.1 | 2850 | COc1cc(-c2[nH]c3ccc(C4CCN(CC(=O)N(C)C)CC4)nc3c2C(C)C)cn2ncnc12 [Example 537]
2 | 3.3 | 8180 | Cc1c(-c2[nH]c3ccc(C4CCN(C5COC5)CC4)nc3c2C(C)C)cn2ncnc2c1C [Example 538]
0.47 | 0.82 | 3320 | CNC(=O)CN1CCC(c2ccc3[nH]c(-c4cn5ncnc5c(C)c4C)c(C(C)C)c3n2)CC1 [Example 539]
1.1 | 1.4 | 1950 | Cc1c(-c2[nH]c3ccc(C4CCN(CC(=O)N(C)C)CC4)nc3c2C(C)C)cn2ncnc2c1C [Example 540]
1.2 | 0.36 | 1430 | Cc1c(-c2[nH]c3ccc(C4CCN(CC(C)(C)O)CC4)nc3c2C(C)C)cn2ncnc2c1C [Example 541]

IC50 (human TLR7) [nM] | IC50 (human TLR8) [nM] | IC50 (human TLR9) [nM] | SMILES
24 | 17 | 9240 | Cc1c(-c2[nH]c3ccc(C4CCN(C5COC5)CC4)nc3c2C(C)C)cn(C)c(=O)c1C [Example 542]
14 | 5.3 | 2280 | Cc1c(-c2[nH]c3ccc(C4CCN(C5CCOCC5)CC4)nc3c2C(C)C)cn(C)c(=O)c1C [Example 543]
11 | 6.4 | 5660 | CNC(=O)CN1CCC(c2ccc3[nH]c(-c4cn(C)c(=O)c(C)c4C)c(C(C)C)c3n2)CC1 [Example 544]
22 | 7.5 | 2460 | Cc1c(-c2[nH]c3ccc(C4CCN(CC(=O)N(C)C)CC4)nc3c2C(C)C)cn(C)c(=O)c1C [Example 545]
9.5 | 1.6 | 1380 | Cc1c(-c2[nH]c3ccc(C4CCN(CC(C)(C)O)CC4)nc3c2C(C)C)cn(C)c(=O)c1C [Example 546]
0.27 | 0.55 | 789 | Cc1cc(-c2[nH]c3ccc(C4CCN(CC(C)(C)O)CC4)nc3c2C(C)C)cn2ncnc12 [Example 547]
0.71 | 0.98 | 1090 | COc1cc(-c2[nH]c3ccc(C4CCN(CC(C)(C)O)CC4)nc3c2C(C)C)cn2ncnc12 [Example 548]
1.8 | 18 | 401 | COc1cc(-c2[nH]c3ccc(C4CCN(C(=O)CN(C)C)CC4)nc3c2C(C)C)cn2ncnc12 [Example 549]
0.87 | 15 | 796 | Cc1cc(-c2[nH]c3ccc(C4CCN(C(=O)CN(C)C)CC4)nc3c2C(C)C)cn2ncnc12 [Example 550]
0.94 | 5.5 | 582 | Cc1c(-c2[nH]c3ccc(C4CCN(C(=O)CN(C)C)CC4)nc3c2C(C)C)cn2ncnc2c1C [Example 551]
0.83 | 2.1 | 4100 | Cc1cc(-c2[nH]c3ccc(C4CCN(CCS(C)(=O)=O)CC4)nc3c2C(C)C)cn2ncnc12 [Example 552]
0.63 | 3.2 | 537 | Cc1cc(-c2[nH]c3ccc(C4CCN(CC#N)CC4)nc3c2C(C)C)cn2ncnc12 [Example 553]
1.5 | 2.5 | 2860 | COc1cc(-c2[nH]c3ccc(C4CCN(CCS(C)(=O)=O)CC4)nc3c2C(C)C)cn2ncnc12 [Example 554]
1.7 | 1.1 | 5080 | Cc1c(-c2[nH]c3ccc(C4CCN(CCS(C)(=O)=O)CC4)nc3c2C(C)C)cn2ncnc2c1C [Example 556]
0.66 | 1.2 | 440 | Cc1c(-c2[nH]c3ccc(C4CCN(CC#N)CC4)nc3c2C(C)C)cn2ncnc2c1C [Example 557]
1.2 | 5.6 | 3430 | COc1cc(-c2[nH]c3ccc(C4CCN(CC(N)=O)CC4)nc3c2C(C)C)cn2ncnc12 [Example 558]
1.2 | 1 | 3820 | Cc1c(-c2[nH]c3ccc(C4CCN(CC(N)=O)CC4)nc3c2C(C)C)cn2ncnc2c1C [Example 560]
0.64 | 3 | 5650 | Cc1cc(-c2[nH]c3ccc(C4CCN(C5CCN(C)C5=O)CC4)nc3c2C(C)C)cn2ncnc12 (stereo not drawn) [Example 561]
1.9 | 1.1 | 6480 | COc1cc(-c2[nH]c3ccc(C4CCN(C5CCN(C)C5=O)CC4)nc3c2C(C)C)cn2ncnc12 (stereo not drawn) [Example 562]
0.83 | 2.4 | 4260 | Cc1c(-c2[nH]c3ccc(C4CCN(C5CCN(C)C5=O)CC4)nc3c2C(C)C)cn2ncnc2c1C (stereo not drawn) [Example 563]
8.8 | 6.9 | 3220 | CNC(=O)CN1CCC(c2ccc3[nH]c(-c4cn(C)c(=O)c(Cl)c4C)c(C(C)C)c3n2)CC1 [Example 565]
24 | 18 | 19000 | Cc1c(-c2[nH]c3ccc(C4CCN(C5COC5)CC4)nc3c2C(C)C)cn(C)c(=O)c1Cl [Example 566]
18 | 18 | 2320 | Cc1c(-c2[nH]c3ccc(C4CCN(CC(=O)N(C)C)CC4)nc3c2C(C)C)cn(C)c(=O)c1Cl [Example 567]
6 | 3.8 | 2080 | CCCN1CCC(c2ccc3[nH]c(-c4cn(C)c(=O)c(Cl)c4C)c(C(C)C)c3n2)CC1 [Example 568]
11 | 3 | 2180 | Cc1c(-c2[nH]c3ccc(C4CCN(CC(C)C)CC4)nc3c2C(C)C)cn(C)c(=O)c1Cl [Example 569]
10 | 57 | 143 | Cc1c(-c2[nH]c3ccc(C4CCN(C(=O)CN(C)C)CC4)nc3c2C(C)C)cn(C)c(=O)c1Cl [Example 570]

SMILES | IC50 (human TLR7) [nM] | IC50 (human TLR8) [nM] | IC50 (human TLR9) [nM]
COc1ccc(-c2[nH]c3ccc(C4CCNCC4)nc3c2C(C)C)cc1OC [Example 526] | 8.8 | 14 | 666
